These results are taken from PMC8141534 (The Journal of Biological Chemistry, 2021).

Ends that are not written are not given here.

The conditions of data set [1]: pH 5.5.
The test system of data set [2] is E. coli Rho. In words: single round in vitro Rho-dependent transcription termination, T7A1-trpt′ template. The format is biochemical, Escherichia coli. The settings on record: data not shown.
Another data set has as its system E. coli MG1655. The format is cell-based, Escherichia coli. The settings on record: MG1655, pNL150, IPTG induction (100 μM), LB, 37 °C, 6 h; three independent colonies.
The test system of data set [3] is E. coli Rho. Briefly: Rho-mediated RNA release from stalled (roadblocked) elongation complex. The format is biochemical, Escherichia coli. The settings on record: Fig. S4B; for inhibition of Rho-induced RNA release from stalled EC (in words): Fig. 3E.
In data set [4] the test system is Rho-dependent termination (trpt′ and trac terminators, lacZ reporter). The format is cell-based, Escherichia coli. To be noted: Fig. 3.
Data set [5] concerns Rho-dependent termination (galEP3 reporter). Briefly: in vivo Rho-dependent termination, galEP3 reporter, MacConkey-galactose plates. The format is cell-based, Escherichia coli. To be noted: MC4100 galEP3, MacConkey-galactose plates, overexpression.
Data set [6] deals with Rho mutants, R144E, R146E, and E148R. The format is cell-based, Escherichia coli. To be noted: 0 and 100 μM IPTG.
For data set [7], the target named is P167L Rho (Escherichia coli, UniProt P0AG30, P167L). In words: biochemical. The format is binding. The settings on record: ITC.
A further data set can be described thus: CD spectrometry. The format is physicochemical. To be noted: 10 mM 2-(N-morpholino)ethanesulfonic acid pH 5.5, 190 to 270 nm, 25 °C.
A further data set has as its system Rho. Further details: method as in 2 sources, one per row (each row's own in cited_ref): ref [23] = [23]; PMID 8466900; doi:10.1021/bi00065a007; 23 Zwiefka A. Kohn H. Widger W.R. Transcription termination factor rho: The site of Bicyclomycin inhibition in Escherichia coli Biochemistry 32 1993 3564 3570 8466900 10.1021/bi00065a007 ||| ref [24], [25], [26] = [24]; PMID 17565995; doi:10.1074/jbc.M702010200; 24 Gutiérrez P. Kozlov G. Gabrielli L. Elias D. Osborne M.J. Gallouzi I.E. Gehring K. Solution structure of YaeO, a rho-specific inhibitor of transcription termination J. Biol. Chem. 282 2007 23348 23 || [25]; PMID 21673658; doi:10.1038/emboj.2011.192; 25 Rabhi M. Espéli O. Schwartz A. Cayrol B. Rahmouni A.R. Arluison V. Boudvillain M. The Sm-like RNA chaperone Hfq mediates transcription antitermination at Rho-dependent terminators EMBO J. 30 2011 2 || [26]; PMID 31628950; doi:10.1016/j.jmb.2019.09.019; 26 Pal K. Yadav M. Jain S. Ghosh B. Sen R. Sen U. Vibrio cholerae YaeO is a structural homologue of RNA chaperone Hfq that inhibits rho-dependent transcription termination by dissociating its hexameri. The settings on record: cited from earlier work; for Rho antagonism (in words): ref [24], [25], [26].

The target of data set [8] is T1, P167L Rho (E. coli, UniProt P0AG30 1-419, P167L).
T1 construct: also called Rho P167L; non-His-tagged P167L Rho
Briefly: pull-down; His-tagged peptides (30 μg peptide 16, 20 μg peptide 33) or His-tagged WT Psu (15 μg) bound to Ni-NTA beads at 4 °C for 12 to 16 h in 100 mM NaH2PO4 pH 8.0, 100 mM NaCl, 10 mM imidazole, 1 mM PMSF; 5 μg non-His-tagged P167L Rho added with 1 mM ATP, 37 °C, 20 min; wash 50 mM imidazole, elution 500 mM imidazole; SDS-Tricine PAGE. The settings on record: both partners purified.

“MHHHHHHTPAQGMIFSVKVRTGITSVSVKAWLFWRMREDFQPDTD [peptide 16]”: the “solubility at mildly acidic pH (in words)” value in [1] is given as “properly soluble at a mildly acidic pH”. For the same molecule, the “effect in transcription termination assay with Rho (in words)” value with E. coli Rho [2] was “much less”. Further, the “growth defect upon expression (in words)” value with E. coli MG1655 was “severe growth defects”. Besides, the “inhibition of Rho-induced RNA release from stalled EC (in words)” value is reported as “significantly inhibited” with E. coli Rho [3] and “could efficiently inhibit the RNA release of Rho only when stalled EC was used” in the data set on E. coli Rho [3] (listed as Peptide 16). Besides, the “Frac. of RNA released (%)” value in the data set on E. coli Rho [3] (peptide 25, Rho 50 nM) worked out at 38 ± 2%; in the data set with E. coli Rho [3] (peptide 50, Rho 50 nM), 22 ± 0.8%; in the data set with E. coli Rho [3] (peptide 100, Rho 50 nM), 13 ± 2%. Also, the “in vivo antitermination / Rho inhibitory properties (in words)” value in data set [4] is listed as “strong in vivo antitermination of Rho-dependent termination”. Also, the “colour of colonies, galEP3 reporter (in words)” value in [5] is “appearance of red colonies”. For the same molecule, the “peptide-induced growth defect with Rho mutants (in words)” value in data set [6] was “could not prevent the peptide-induced growth defect”. Also, at P167L Rho [7] (Kd, 1 μM Rho P167L, 50 μM peptide, 1 mM ATP, pH 8.0, 25 °C, average of three experiments ± SD, Fig. 4B), the affinity, expressed as Kd, was 214 ± 113 nM. Further, the “binding affinity and stoichiometry (in words)” value at P167L Rho [7] (compared with peptide 33) is “binds with much weaker affinity and with significantly reduced stoichiometry”. In addition, the “secondary structure by CD (in words)” value in “CD spectrometry” is recorded as “predominantly α-helical”.

Consider `C=C1CCO[C@]2([C@@H](O)[C@@](C)(O)CO)NC(=O)[C@@]1(O)NC2=O` [bicyclomycin], for which the “Rho inhibition (in words)” value in the data set on Rho (ref [23]) is “directly binds near the ATP-binding sites and inhibits Rho functions”.

With Hfq: PBS-binding Rho antagonist, the “Rho antagonism (in words)” value with Rho is listed as “PBS-binding Rho antagonists”.

B1: His-tagged WT Psu (polarity suppression protein, bacteriophage P4 capsid protein) (natural protein)
chain: MESTALQQAFDTCQNNKAAWLQRKNELAAAEQEYLRLLSGEGRNVSRLDELRNIIEVRKWQVNQAAGRYIRSHEAVQHISIRDRLNDFMQQHGTALAAALAPELMGYSELTAIARNCAIQRATDALREALLSWLAKGEKINYSAQDSDILTTIGFRPDVASVDDSREKFTPAQNMIFSRKSAQLASRQSV
As for B1, the binding result with P167L Rho [8] is recorded as “binds”.

B2: YaeO: PBS-binding Rho antagonist (protein, UniProt P0AFW8 1-84, looked up)
Protein rof: MNDTYQPINCDDYDNLELACQHHLMLTLELKDGEKLQAKASDLVSRKNVEYLVVEAAGETRELRLDKITSFSHPEIGTVVVSES
For B2, in the data set with Rho, the “Rho antagonism (in words)” value was “PBS-binding Rho antagonists”.
